Laboratory results: patent publication US20230146675A1, “PYRIMIDO[5,4-d]PYRIMIDINE DERIVATIVES AS ENT INHIBITORS FOR THE TREATMENT OF CANCERS, AND COMBINATION THEREOF WITH ADENOSINE RECEPTOR ANTAGONISTS” (ITEOS BELGIUM SA, priority 2020, published 2023)

target: T1, human ENT1 (Homo sapiens, UniProt Q99808); assay: ENT1 binding assay (competition with Sahenta-DY647 on JAR cells); design: JAR cells expressing ENT1 were bought from ATCC; host or cells: JAR cells; settings: binned IC50
T1 sequence (Q99808 1-456): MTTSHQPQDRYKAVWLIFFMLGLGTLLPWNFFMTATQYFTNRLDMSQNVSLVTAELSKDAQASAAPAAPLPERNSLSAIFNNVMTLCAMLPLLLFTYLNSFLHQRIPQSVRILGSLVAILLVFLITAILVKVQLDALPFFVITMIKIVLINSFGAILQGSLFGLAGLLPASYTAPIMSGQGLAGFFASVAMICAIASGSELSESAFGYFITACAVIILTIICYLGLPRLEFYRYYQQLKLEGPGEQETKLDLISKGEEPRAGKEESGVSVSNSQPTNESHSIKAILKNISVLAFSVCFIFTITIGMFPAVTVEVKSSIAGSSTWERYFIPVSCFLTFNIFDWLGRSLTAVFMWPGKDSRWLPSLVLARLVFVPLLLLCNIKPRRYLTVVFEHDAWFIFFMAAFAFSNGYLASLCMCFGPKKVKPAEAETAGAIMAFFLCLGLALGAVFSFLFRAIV
Procedure, shortened: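 JAR cells were incubated with test compounds and the fluorescent ligand Sahenta-DY647 in competition. Plates were washed twice by centrifugation (4 min, 400 rcf, 4 °C). Binding potency was derived from the final fluorescence.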

COCCN(CCOC)c1nc(N2CCC(OC)CC2)c2nc(N(CCOC)CCOC)nc(NCc3ccc(Cl)c(Cl)c3)c2n1 [Compound 137, N4-(3,4-dichlorobenzyl)-N2,N2,N6,N6-tetrakis(2-methoxyethyl)-8-(4-methoxypiperidin-1-yl)pyrimido[5,4-d]pyrimidine-2,4,6-triamine] and COCCN(CCOC)c1nc(N2CCC(OC)CC2)c2nc(N(CCOC)CCOC)nc(NCc3ccc(F)c(Cl)c3)c2n1 [Compound 138, N4-(3-chloro-4-fluorobenzyl)-N2,N2,N6,N6-tetrakis(2-methoxyethyl)-8-(4-methoxypiperidin-1-yl)pyrimido[5,4-d]pyrimidine-2,4,6-triamine] cannot be ordered by IC50: < 100 nM for the first, < 100 nM for the second.

COCCN(CCOC)c1nc(N2CCC(OC)CC2)c2nc(N(CCOC)CCOC)nc(NCc3ccc(F)c(F)c3)c2n1 [Compound 139, N4-(3,4-difluorobenzyl)-N2,N2,N6,N6-tetrakis(2-methoxyethyl)-8-(4-methoxypiperidin-1-yl)pyrimido[5,4-d]pyrimidine-2,4,6-triamine] and COCCN(CCOC)c1nc(N2CCC(OC)CC2)c2nc(N(CCOC)CCOC)nc(NCc3cccc(F)c3)c2n1 [Compound 142, N4-(3-fluorobenzyl)-N2,N2,N6,N6-tetrakis(2-methoxyethyl)-8-(4-methoxypiperidin-1-yl)pyrimido[5,4-d]pyrimidine-2,4,6-triamine] cannot be ordered by IC50: < 100 nM for the first, < 100 nM for the second.

Compared with COCCN(CCOC)c1nc(N2CCC(OC)CC2)c2nc(N(CCOC)CCOC)nc(NCc3ccc(C#N)cc3)c2n1 [Compound 140, 4-(((2,6-bis(bis(2-methoxyethyl)amino)-8-(4-methoxypiperidin-1-yl)pyrimido[5,4-d]pyrimidin-4-yl)amino)methyl)benzonitrile], COCCN(CCOC)c1nc(N2CCC(OC)CC2)c2nc(N(CCOC)CCOC)nc(NCc3cccc(C#N)c3)c2n1 [Compound 145, 3-(((2,6-bis(bis(2-methoxyethyl)amino)-8-(4-methoxypiperidin-1-yl)pyrimido[5,4-d]pyrimidin-4-yl)amino)methyl)benzonitrile] is lower in IC50: 100 to 500 nM for the first, < 100 nM for the second. The second is the more potent here.

First: COCCN(CCOC)c1nc(N2CCC(OC)CC2)c2nc(N(CCOC)CCOC)nc(NCc3cccc(Cl)c3)c2n1 [Compound 141, N4-(3-chlorobenzyl)-N2,N2,N6,N6-tetrakis(2-methoxyethyl)-8-(4-methoxypiperidin-1-yl)pyrimido[5,4-d]pyrimidine-2,4,6-triamine]
Second: COCCN(CCOC)c1nc(N2CCC(OC)CC2)c2nc(N(CCOC)CCOC)nc(NCc3cccc(S(C)(=O)=O)c3)c2n1 [Compound 148, N2,N2,N6,N6-tetrakis(2-methoxyethyl)-8-(4-methoxypiperidin-1-yl)-N4-(3-(methylsulfonyl)benzyl)pyrimido[5,4-d]pyrimidine-2,4,6-triamine]
The IC50 of the first is lower: < 100 nM for the first, 100 to 500 nM for the second.

First: COCCN(CCOC)c1nc(N2CCC(OC)CC2)c2nc(N(CCOC)CCOC)nc(NCc3cccc(OC(F)(F)F)c3)c2n1 [Compound 143, N2,N2,N6,N6-tetrakis(2-methoxyethyl)-8-(4-methoxypiperidin-1-yl)-N4-(3-(trifluoromethoxy)benzyl)pyrimido[5,4-d]pyrimidine-2,4,6-triamine]
Second: COCCN(CCOC)c1nc(N2CCC(OC)CC2)c2nc(N(CCOC)CCOC)nc(NCc3cccc(OC(F)F)c3)c2n1 [Compound 144, N4-(3-(difluoromethoxy)benzyl)-N2,N2,N6,N6-tetrakis(2-methoxyethyl)-8-(4-methoxypiperidin-1-yl)pyrimido[5,4-d]pyrimidine-2,4,6-triamine]
The IC50 of the first is lower: < 100 nM for the first, 100 to 500 nM for the second. The first is the more potent here.

COCCN(CCOC)c1nc(N2CCC(OC)CC2)c2nc(N(CCOC)CCOC)nc(NCc3cccc(-n4cccn4)c3)c2n1 [Compound 146, N4-(3-(1H-pyrazol-1-yl)benzyl)-N2,N2,N6,N6-tetrakis(2-methoxyethyl)-8-(4-methoxypiperidin-1-yl)pyrimido[5,4-d]pyrimidine-2,4,6-triamine] and COCCN(CCOC)c1nc(N2CCC(OC)CC2)c2nc(N(CCOC)CCOC)nc(NCc3cccc(-c4ncco4)c3)c2n1 [Compound 151, N2,N2,N6,N6-tetrakis(2-methoxyethyl)-8-(4-methoxypiperidin-1-yl)-N4-(3-(oxazol-2-yl)benzyl)pyrimido[5,4-d]pyrimidine-2,4,6-triamine] fall in the same range of IC50: 100 to 500 nM for the first, 100 to 500 nM for the second.

First: COCCN(CCOC)c1nc(N2CCC(OC)CC2)c2nc(N(CCOC)CCOC)nc(NCc3ccnc(N)c3)c2n1 [Compound 147, N4-((2-aminopyridin-4-yl)methyl)-N2,N2,N6,N6-tetrakis(2-methoxyethyl)-8-(4-methoxypiperidin-1-yl)pyrimido[5,4-d]pyrimidine-2,4,6-triamine]
Second: COCCN(CCOC)c1nc(N2CCC(OC)CC2)c2nc(N(CCOC)CCOC)nc(NCc3ccc(Cl)c(C#N)c3)c2n1 [Compound 150, 5-(((2,6-bis(bis(2-methoxyethyl)amino)-8-(4-methoxypiperidin-1-yl)pyrimido[5,4-d]pyrimidin-4-yl)amino)methyl)-2-chlorobenzonitrile]
The IC50 of the first is higher: 500 to 1000 nM for the first, < 100 nM for the second. The second is the more potent here.

COCCN(CCOC)c1nc(N2CCC(OC)CC2)c2nc(N(CCOC)CCOC)nc(OCc3cc(OC)cc(OC)c3)c2n1 [Compound 152, 4-((3,5-dimethoxybenzyl)oxy)-N2,N2,N6,N6-tetrakis(2-methoxyethyl)-8-(4-methoxypiperidin-1-yl)pyrimido[5,4-d]pyrimidine-2,6-diamine] and COCCN(CCOC)c1nc(N2CCC(OC)CC2)c2nc(N(CCOC)CCOC)nc(OCc3cccc(OC)c3)c2n1 [Compound 153, 4-((3-methoxybenzyl)oxy)-N2,N2,N6,N6-tetrakis(2-methoxyethyl)-8-(4-methoxypiperidin-1-yl)pyrimido[5,4-d]pyrimidine-2,6-diamine] cannot be ordered by IC50: < 100 nM for the first, < 100 nM for the second.

COCCN(CCOC)c1nc(N2CCC(OC)CC2)c2nc(N(CCOC)CCOC)nc(OCc3ccc(Cl)c(Cl)c3)c2n1 [Compound 154, 4-((3,4-dichlorobenzyl)oxy)-N2,N2,N6,N6-tetrakis(2-methoxyethyl)-8-(4-methoxypiperidin-1-yl)pyrimido[5,4-d]pyrimidine-2,6-diamine] and COCCN(CCOC)c1nc(N2CCC(OC)CC2)c2nc(N(CCOC)CCOC)nc(OCc3cccc(Cl)c3)c2n1 [Compound 155, 4-((3-chlorobenzyl)oxy)-N2,N2,N6,N6-tetrakis(2-methoxyethyl)-8-(4-methoxypiperidin-1-yl)pyrimido[5,4-d]pyrimidine-2,6-diamine] cannot be ordered by IC50: < 100 nM for the first, < 100 nM for the second.

COCCN(CCOC)c1nc(N2CCC(OC)CC2)c2nc(N(CCOC)CCOC)nc(OCc3cccc(C#N)c3)c2n1 [Compound 156, 3-(((2,6-bis(bis(2-methoxyethyl)amino)-8-(4-methoxypiperidin-1-yl)pyrimido[5,4-d]pyrimidin-4-yl)oxy)methyl)benzonitrile] and COCCN(CCOC)c1nc(N2CCC(OC)CC2)c2nc(N(CCOC)CCOC)nc(OCc3cncc(C#N)c3)c2n1 [Compound 158, 5-(((2,6-bis(bis(2-methoxyethyl)amino)-8-(4-methoxypiperidin-1-yl)pyrimido[5,4-d]pyrimidin-4-yl)oxy)methyl)nicotinonitrile] fall in the same range of IC50: 100 to 500 nM for the first, 100 to 500 nM for the second.

For COCCN(CCOC)c1nc(N2CCC(OC)CC2)c2nc(N(CCOC)CCOC)nc(OCc3ccc(F)c(OC)c3)c2n1 [Compound 157, 4-((4-fluoro-3-methoxybenzyl)oxy)-N2,N2,N6,N6-tetrakis(2-methoxyethyl)-8-(4-methoxypiperidin-1-yl)pyrimido[5,4-d]pyrimidine-2,6-diamine], the IC50 was < 100 nM.
